Data from patent publication US10765114B2, “4-amino-6-(pyridyl and 2-substitutedphenyl)-picolinates and 6-amino-2-(pyridyl and 2-substitutedphenyl)-pyrimidine-4-carboxylates and their use as herbicides” (Dow AgroSciences LLC, priority 2013, dated 2020).

System: Key Grass and Sedge Weeds as well as Grass Crops
Assay: Post-Emergent Test II (Table 6)
Type: in vivo
Settings: post-emergence, 336 h, CYPSS, 140 g ai/ha, 14 days after application, read-out: Visual Growth Reduction (%) 14 Days After Application CYPSS
How it was run: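 Plants grown in a greenhouse (~15 h photoperiod, 23-29° C day) to first or second true leaf stage were sprayed post-emergence at 187 L/ha with compound in acetone/DMSO-based aqueous spray containing crop oil concentrate and surfactant, applied at a high rate plus ½× to 1/16× serial rates. Injury was scored visually 14 days later, 0-100% versus untreated plants.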

Compound	pest or weed control at 140 g/ha
Nc1c(F)c(-c2ccc(C(F)F)nc2)nc(C(=O)O)c1Cl [Compound 27, 4-amino-5-chloro-6′-(difluoromethyl)-3-fluoro-[2,3′-bipyridine]-6-carboxylic acid]	95 to 100%

Same assay, conditions: post-emergence, 336 h, DIGSA: crabgrass (Digitaria sanguinalis), 70 g ai/ha, 14 days after application, read-out: Visual Growth Reduction (%) 14 Days After Application DIGSA

Compound	pest or weed control at 70 g/ha
Nc1c(F)c(-c2ccc(C(F)F)nc2)nc(C(=O)O)c1Cl [Compound 27, 4-amino-5-chloro-6′-(difluoromethyl)-3-fluoro-[2,3′-bipyridine]-6-carboxylic acid]	75 to 84%

Same assay, conditions: post-emergence, 336 h, DIGSA: crabgrass (Digitaria sanguinalis), 140 g ai/ha, 14 days after application, read-out: Visual Growth Reduction (%) 14 Days After Application DIGSA

Compound	pest or weed control at 140 g/ha
Nc1c(F)c(-c2ccc(C(F)F)nc2)nc(C(=O)O)c1Cl [Compound 27, 4-amino-5-chloro-6′-(difluoromethyl)-3-fluoro-[2,3′-bipyridine]-6-carboxylic acid]	85 to 94%

Same assay, conditions: post-emergence, 336 h, ECHSS, 70 g ai/ha, 14 days after application, read-out: Visual Growth Reduction (%) 14 Days After Application ECHSS

Compound	pest or weed control at 70 g/ha
Nc1c(F)c(-c2ccc(C(F)F)nc2)nc(C(=O)O)c1Cl [Compound 27, 4-amino-5-chloro-6′-(difluoromethyl)-3-fluoro-[2,3′-bipyridine]-6-carboxylic acid]	85 to 94%

Same assay, conditions: post-emergence, 336 h, ECHSS, 140 g ai/ha, 14 days after application, read-out: Visual Growth Reduction (%) 14 Days After Application ECHSS

Compound	pest or weed control at 140 g/ha
Nc1c(F)c(-c2ccc(C(F)F)nc2)nc(C(=O)O)c1Cl [Compound 27, 4-amino-5-chloro-6′-(difluoromethyl)-3-fluoro-[2,3′-bipyridine]-6-carboxylic acid]	85 to 94%

Same assay, conditions: post-emergence, 336 h, ORYSS (crop), 70 g ai/ha, 14 days after application, read-out: Visual Growth Reduction (%) 14 Days After Application ORYSS

Compound	pest or weed control at 70 g/ha
Nc1c(F)c(-c2ccc(C(F)F)nc2)nc(C(=O)O)c1Cl [Compound 27, 4-amino-5-chloro-6′-(difluoromethyl)-3-fluoro-[2,3′-bipyridine]-6-carboxylic acid]	0 to 29%

Same assay, conditions: post-emergence, 336 h, ORYSS (crop), 140 g ai/ha, 14 days after application, read-out: Visual Growth Reduction (%) 14 Days After Application ORYSS

Compound	pest or weed control at 140 g/ha
Nc1c(F)c(-c2ccc(C(F)F)nc2)nc(C(=O)O)c1Cl [Compound 27, 4-amino-5-chloro-6′-(difluoromethyl)-3-fluoro-[2,3′-bipyridine]-6-carboxylic acid]	0 to 29%

Same assay, conditions: post-emergence, 336 h, SETFA: giant foxtail (Setaria faberi), 70 g ai/ha, 14 days after application, read-out: Visual Growth Reduction (%) 14 Days After Application SETFA

Compound	pest or weed control at 70 g/ha
Nc1c(F)c(-c2ccc(C(F)F)nc2)nc(C(=O)O)c1Cl [Compound 27, 4-amino-5-chloro-6′-(difluoromethyl)-3-fluoro-[2,3′-bipyridine]-6-carboxylic acid]	75 to 84%

Same assay, conditions: post-emergence, 336 h, SETFA: giant foxtail (Setaria faberi), 140 g ai/ha, 14 days after application, read-out: Visual Growth Reduction (%) 14 Days After Application SETFA

Compound	pest or weed control at 140 g/ha
Nc1c(F)c(-c2ccc(C(F)F)nc2)nc(C(=O)O)c1Cl [Compound 27, 4-amino-5-chloro-6′-(difluoromethyl)-3-fluoro-[2,3′-bipyridine]-6-carboxylic acid]	85 to 94%

Same assay, conditions: post-emergence, 336 h, SORVU: grain sorghum (Sorghum vulgare), 70 g ai/ha, 14 days after application, read-out: Visual Growth Reduction (%) 14 Days After Application SORVU

Compound	pest or weed control at 70 g/ha
Nc1c(F)c(-c2ccc(C(F)F)nc2)nc(C(=O)O)c1Cl [Compound 27, 4-amino-5-chloro-6′-(difluoromethyl)-3-fluoro-[2,3′-bipyridine]-6-carboxylic acid]	75 to 84%

Same assay, conditions: post-emergence, 336 h, SORVU: grain sorghum (Sorghum vulgare), 140 g ai/ha, 14 days after application, read-out: Visual Growth Reduction (%) 14 Days After Application SORVU

Compound	pest or weed control at 140 g/ha
Nc1c(F)c(-c2ccc(C(F)F)nc2)nc(C(=O)O)c1Cl [Compound 27, 4-amino-5-chloro-6′-(difluoromethyl)-3-fluoro-[2,3′-bipyridine]-6-carboxylic acid]	85 to 94%

Same assay, conditions: post-emergence, 336 h, TRZSS (crop), 70 g ai/ha, 14 days after application, read-out: Visual Growth Reduction (%) 14 Days After Application TRZSS

Compound	pest or weed control at 70 g/ha
Nc1c(F)c(-c2ccc(C(F)F)nc2)nc(C(=O)O)c1Cl [Compound 27, 4-amino-5-chloro-6′-(difluoromethyl)-3-fluoro-[2,3′-bipyridine]-6-carboxylic acid]	45 to 59%

Same assay, conditions: post-emergence, 336 h, TRZSS (crop), 140 g ai/ha, 14 days after application, read-out: Visual Growth Reduction (%) 14 Days After Application TRZSS

Compound	pest or weed control at 140 g/ha
Nc1c(F)c(-c2ccc(C(F)F)nc2)nc(C(=O)O)c1Cl [Compound 27, 4-amino-5-chloro-6′-(difluoromethyl)-3-fluoro-[2,3′-bipyridine]-6-carboxylic acid]	60 to 74%

Same assay, conditions: post-emergence, 336 h, ZEAMX: maize, corn (Zea mays), 70 g ai/ha, 14 days after application, read-out: Visual Growth Reduction (%) 14 Days After Application ZEAMX

Compound	pest or weed control at 70 g/ha
Nc1c(F)c(-c2ccc(C(F)F)nc2)nc(C(=O)O)c1Cl [Compound 27, 4-amino-5-chloro-6′-(difluoromethyl)-3-fluoro-[2,3′-bipyridine]-6-carboxylic acid]	60 to 74%

Same assay, conditions: post-emergence, 336 h, ZEAMX: maize, corn (Zea mays), 140 g ai/ha, 14 days after application, read-out: Visual Growth Reduction (%) 14 Days After Application ZEAMX

Compound	pest or weed control at 140 g/ha
Nc1c(F)c(-c2ccc(C(F)F)nc2)nc(C(=O)O)c1Cl [Compound 27, 4-amino-5-chloro-6′-(difluoromethyl)-3-fluoro-[2,3′-bipyridine]-6-carboxylic acid]	75 to 84%

System: not given
Assay: not given
Settings: not given

melting point	Compound
167 to 169 °C	Nc1c(F)c(-c2ccc(C(F)F)nc2)nc(C(=O)O)c1Cl [Compound 27, 4-amino-5-chloro-6′-(difluoromethyl)-3-fluoro-[2,3′-bipyridine]-6-carboxylic acid]
